Data reported in the supplement of paper PMC10307832.

What was measured:
Assay in all cases: relative viability (nuclei count vs DMSO), 5 days (fraction); higher = more cells survive
HCC-15 = tested on: HCC-15
How it was run: (§1)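 Relative viability was taken as the ratio of nuclei in treated wells to nuclei in vehicle wells. Lung cancer cell lines in 1536-well plates received compounds by pin tool one day after seeding, either one drug alone or a fixed anchor-drug dose plus five library-drug doses (not always all listed) in √10 steps. Nuclei were counted on 4× images after 5 days of treatment, and values are medians of duplicate plates.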

NCI-H2170 = tested on: NCI-H2170
How it was run: as §1

NCI-H322M = tested on: NCI-H322M
How it was run: as §1

NCI-H2405 = tested on: NCI-H2405
How it was run: as §1

PC-14 = tested on: PC-14
How it was run: as §1

LOU-NH91 = tested on: LOU-NH91
How it was run: as §1

NCI-H1793 = tested on: NCI-H1793
How it was run: as §1

201T = tested on: 201T
How it was run: as §1

NCI-H520 = tested on: NCI-H520
How it was run: as §1

SW 900 = tested on: SW 900
How it was run: as §1

NCI-H1650 = tested on: NCI-H1650
How it was run: as §1

CCN(CC)CCCCNc1ncc2cc(-c3cc(OC)cc(OC)c3)c(NC(=O)NC(C)(C)C)nc2n1 + CC(=O)Nc1cccc(-n2c(=O)n(C3CC3)c(=O)c3c(Nc4ccc(I)cc4F)n(C)c(=O)c(C)c32)c1 [Trametinib] (partner 0.02 µM)
relative viability (HCC-15; first compound 0.3162 µM): 0.42
relative viability (HCC-15; first compound 1 µM): 0.361
relative viability (NCI-H2170; first compound 0.01 µM): 0.987
relative viability (NCI-H2170; first compound 0.03162 µM): 0.929
relative viability (NCI-H2170; first compound 0.1 µM): 0.894
relative viability (NCI-H2170; first compound 0.3162 µM): 1
relative viability (NCI-H2170; first compound 1 µM): 0.719
relative viability (NCI-H322M; first compound 0.01 µM): 0.514
relative viability (NCI-H322M; first compound 0.03162 µM): 0.49
relative viability (NCI-H322M; first compound 0.1 µM): 0.436
relative viability (NCI-H322M; first compound 0.3162 µM): 0.339
relative viability (NCI-H322M; first compound 1 µM): 0.488
relative viability (NCI-H2405; first compound 0.01 µM): 0.574
relative viability (NCI-H2405; first compound 0.03162 µM): 0.669
relative viability (NCI-H2405; first compound 0.1 µM): 0.796
relative viability (NCI-H2405; first compound 0.3162 µM): 0.655
relative viability (NCI-H2405; first compound 1 µM): 0.5
relative viability (PC-14; first compound 0.01 µM): 0.956
relative viability (PC-14; first compound 0.03162 µM): 0.836
relative viability (PC-14; first compound 0.1 µM): 1.16
relative viability (PC-14; first compound 0.3162 µM): 0.759
relative viability (PC-14; first compound 1 µM): 0.591
relative viability (LOU-NH91; first compound 0.01 µM): 0.758
relative viability (LOU-NH91; first compound 0.03162 µM): 0.771
relative viability (LOU-NH91; first compound 0.1 µM): 0.829
relative viability (LOU-NH91; first compound 0.3162 µM): 0.844
relative viability (LOU-NH91; first compound 1 µM): 0.766
relative viability (NCI-H1793; first compound 0.01 µM): 0.456
relative viability (NCI-H1793; first compound 0.03162 µM): 0.405
relative viability (NCI-H1793; first compound 0.1 µM): 0.422
relative viability (NCI-H1793; first compound 0.3162 µM): 0.337
relative viability (NCI-H1793; first compound 1 µM): 0.238
relative viability (201T; first compound 0.01 µM): 0.716
relative viability (201T; first compound 0.03162 µM): 0.725
relative viability (201T; first compound 0.1 µM): 0.742
relative viability (201T; first compound 0.3162 µM): 0.742
relative viability (201T; first compound 1 µM): 0.605
relative viability (NCI-H520; first compound 0.01 µM): 0.684
relative viability (NCI-H520; first compound 0.03162 µM): 0.538
relative viability (NCI-H520; first compound 0.1 µM): 0.722
relative viability (NCI-H520; first compound 0.3162 µM): 0.287
relative viability (NCI-H520; first compound 1 µM): 0.216
relative viability (SW 900; first compound 0.01 µM): 0.787
relative viability (SW 900; first compound 0.03162 µM): 0.916
relative viability (SW 900; first compound 0.1 µM): 0.947
relative viability (SW 900; first compound 0.3162 µM): 0.665
relative viability (SW 900; first compound 1 µM): 0.522
relative viability (NCI-H1650; first compound 0.01 µM): 0.695
relative viability (NCI-H1650; first compound 0.03162 µM): 0.564
relative viability (NCI-H1650; first compound 0.1 µM): 0.783
relative viability (NCI-H1650; first compound 0.3162 µM): 0.598
relative viability (NCI-H1650; first compound 1 µM): 0.457
